These results are taken from patent US8232289B2, “Spiropiperidine compounds as ORL-1 receptor antagonists” (Eli Lilly and Company, priority 2009, dated 2012).

The structures appear in SMILES notation. Marks after values point to notes of the source that are not given here.

Data set [1] in a line: Rat hepatic microsomal glutathione trapping assay. Format: in vitro ADME. As to conditions: hepatic microsomal homogenate, glutathione as nucleophile. The text has this: Assuming that reactive metabolites may play a role in clinical IDRs, minimizing the potential for oxidative bioactivation has been proposed as a means of improving the overall safety profile of compounds containing structural features associated with such reactivity. (see Baillie, Thomas A., Approaches to the Assessment of Stable and Chemically Reactive Drug Metabolites in Early Clinical Trials, Chemical Research in Toxicology, vol 22(2) 2009.) To this end, representative compounds of the present invention and related compounds are screened using a rat hepatic microsomal trapping assay, using glutathione as an endogenous nucleophile, to understand the potential for oxidative bioactivation of the thienyl moiety. […] Of the compounds tested, those wherein R^2a and R^2b are fluoro are found to not show glutathione conjugate formation.

Data set [2] addresses T1, cloned human ORL1/nociceptin receptors (Homo sapiens, UniProt P41146).
T1 construct: expressed in transfected cells
Briefly: Functional blockade of agonist-mediated G-protein activation, GTP-γ-[35S] binding. Format: biochemical. As to conditions: stimulation with 300 nM nociceptin/OFQ; read-out: Kb for the ORL-1 receptor (antagonist affinity). From the text: Agonist-mediated stimulation of G-protein coupled receptors results in the activation of membrane associated Gαβγ-protein heterotrimer complexes, and represents the first step in the transduction of extracellular signals to modification of intracellular pathways. The first step in activation of receptor-mediated activation of Gαβγ-proteins heterotrimer is the exchange of Gα subunit bound guanosine diphoshpate (GDP) for guanosine triphosphate (GTP). The binding of GTP to the Gα subunit causes dissociation of the heterotrimer subunits, Gβ and Gγ, resulting in the modulation of several intracellular signaling cascades. Measurement of receptor-mediated G-protein activation can be measured using the non-hydrolyzable radiolabeled analog of GTP, GTP-γ-[35S]. Utilizing this methodology, antagonist affinity (Kb) is measured in membranes expressing cloned human ORL1/nociceptin receptors using a GTP-γ-[35S] binding assay according to previously described protocols with minor modifications (DeLapp et al., J Pharmacol Exp Ther. 1999 May; 289(2):946-55; Ozaki et al., Eur J Pharmacol. 2000 Aug. 18; 402(1-2):45-53). Assays are conducted in a 200-μl volume with the following buffer composition: 100 mM NaCl, 20 mM HEPES, 5 mM MgCl2, 1 mM EDTA, 0.1% BSA, 3 μM GDP, 0.5 nM [^35S]GTPγS. ORL1 receptor membrane suspension is added at a concentration of 20 μg protein per well and receptor stimulation is achieved using 300 nM nociceptin/OFQ. Wheat germ agglutinin coated SPA beads (Amersham, Arlington Hts., IL) are added at 1 mg per well to detect membrane-bound [^35S]GTPγS. Plates are sealed and incubated for 2 hr. at room temperature. Plates are then placed at 4° C. overnight to allow the SPA beads to settle and then counted in a Wallac Microbeta. Specific [^35S]GTPγS binding is determined as the difference in CPM observed in the absence and presence of 10 μM unlabeled GTPγS. Data are plotted as the percent of specific [^35S]GTPγS bound. Curves are plotted as the percent of specific binding and IC50 values are determined using a sigmoidal dose response curve with variable slope. […]
(In general: GTPγS is a poorly hydrolysed GTP analogue; its binding reports G protein activation.)

In the next data set the test system is male NIH-Swiss mice. Briefly: Forced-swim test in mice (mFST). It is filed as in vivo. The text has this: (§1) mFST is an established in vivo assay for antidepressant activity (Li et al. J Pharmacol Exp Ther. 319(1):254-9, 2006.). […] The mFST was used to evaluate potential antidepressant-like activity of novel nociceptin/ORL1 antagonists according to previously published methods (Li et al. J Pharmacol Exp Ther. 319(1):254-9, 2006.). Briefly, male NIH-Swiss mice (Harlan Sprague-Dawley, Indianapolis, Ind.) weighing between 25-30 g are used. Group housed animals are removed from the vivarium to the testing area in their own cages and allowed to adapt to the new environment for at least 1 hour before testing. Alternatively, male 129S6 wild type and nociceptin/ORL1 receptor knockout mice were used to confirm dependence of the response to compound was nociceptin/ORL1 receptor dependent. All compounds are prepared in 20% Captisol, 25 mM phosphate buffer, pH 2.0 on the day of use. Mice are placed in a cylinder (diameter: 10 cm; height: 25 cm) filled with 6 cm of water (22-25° C.) for 6 min. The duration of immobility during the last 4 min. of the 6 min. period of the test was scored. A mouse is recorded as immobile when floating motionless or making only those movements necessary to keep its head above water.

For data set [3], the system named is 129S6 wild type and nociceptin/ORL1 receptor knockout mice. Kind of data set: mFST in wild type and ORL-1 knockout mice. It is filed as in vivo.
Description: as §1
Yet further, these effects of reduced immobilization times are not observed when ORL-1 knockout mice, a strain of mice engineered to lack the ORL-1 receptor, are used, showing that the effect is indeed mediated by the ORL-1 receptor.

In another data set the test system is Male Sprague-Dawley rats. Kind of data set: Rat dural plasma protein extravasation (PPE) model, oral dosing. It is filed as in vivo. As to conditions: 1.0 mg/kg po. As to the method:
All test compounds are prepared in a vehicle solution containing 20% Captisol in 25 mM phosphate buffer (pH 2.0). The positive control compound, sumatriptan, is dissolved in saline. Male Sprague-Dawley rats from Harlan Laboratories (250 to 350 g), that have been fasted overnight, are dosed with test compound, sumatriptan or vehicle by oral gavage (2 mL/kg). Fifty min. post-dose the rats are anesthetized with Nembutal (60 mg/kg, ip) and placed in a stereotaxic frame with the incisor bar set at −2.5 mm. Following a mid-line sagittal scalp incision, 2 pairs of bilateral holes were drilled through the skull (3.2 mm posteriorly, 1.8 and 3.8 mm laterally, all coordinates referenced to bregma). Pairs of stainless steel stimulating electrodes (Rhodes Medical Systems Inc), insulated except at the tips, are lowered through the holes in both hemispheres to a depth of 9.2 mm below the dura.
A solution of fluoroscein isothiocyanate (FITC) dye-labeled bovine serum albumin (BSA) (FITC-BSA) (20 mg/kg, iv), is injected into the femoral vein 2 minutes prior to electrical stimulation of the trigeminal ganglion to function as the marker for protein extravasation. Sixty minutes following dosing with test compound or vehicle, the left trigeminal ganglion is electrically stimulated for 5 minutes at a current intensity of 1.0 mA (5 Hz, 5 minutes duration).
Five minutes following stimulation, the rats are killed by exsanguination with 40 mL of saline which also rinses residual FITC/BSA out of the blood vessels. The top of the skull is removed to collect the dural membranes. The membrane samples are removed from both hemispheres, rinsed with water, and spread flat on microscope slides. The slides are dried for 15 minutes on a slide warmer and cover-slipped with a 70% glycerol/water solution.
A fluorescence microscope equipped with a grating monochromator and a spectrophotometer is used to quantify the amount of FITC-BSA dye in each dural sample. The microscope is equipped with a motorized stage interfaced with a personal computer. This facilitates the computer-controlled movement of the stage, with fluorescence measurements at 25 points (500 μm steps) on each dural sample. The extravasation induced by electrical stimulation of the trigeminal ganglion is an ipsilateral effect (that is occurs only on the side of the dura in which the trigeminal ganglion is stimulated). This allows the other (unstimulated) half of the dura to be used as a control. The extravasation ratio (that is the ratio of the amount of extravasation in the dura from the stimulated side compared to the unstimulated side) is calculated. Animals dosed with vehicle alone or an ineffective dose of the test compound have an extravasation ratio of approximately 2, while totally effective treatments result in a ratio of approximately 1.
Results are expressed as mean values with standard errors of the mean (±SEM). All statistical evaluations are conducting utilizing ANOVA followed by comparison to the control group by Dunnett's Method. Statistical significance is assumed when p<0.05. Statistical analyses are performed using JMP statistical analysis software (SAS Research Institute, version 6.0.2).

Data set [4] concerns wild type and ORL knockout mice. Kind of data set: Blockade of fasting-induced hyperphagia in mice. It is filed as in vivo. The text has this:
Blockade of fasting-induced hyperphagia in rodents is an accepted model for hyperphagic eating disorders. […] Mice are individually housed a minimum of 3 days prior to the onset of testing to eliminate any effects of stress due to the change from group to individual housing. Three mice/genotype are randomly assigned to each treatment group on the test day. Pre-fast body weight measurements are taken, and food is then removed from cages overnight. Mice are fasted for approximately 15 hr. The next morning, the mice are given one of three doses of drug or vehicle via oral gavage 30 min. prior to gaining access to food. Drugs are dissolved in 20% Captisol dissolved in 25 mM phosphate buffer, pH 2.0. Measurements of body weight are taken immediately prior to drug treatment or 24 hr. after access to food is restored. […] Measurements of food intake are recorded 1 hr following access to food, as indicated, by weight of food remaining at 1 hr. It should be noted that food intake measured is during the light phase, a time during which mice are typically at rest and not normally eating. Following initial testing, mice are rested for 1 week with access to unlimited chow.

T1 sequence (P41146 whole entry): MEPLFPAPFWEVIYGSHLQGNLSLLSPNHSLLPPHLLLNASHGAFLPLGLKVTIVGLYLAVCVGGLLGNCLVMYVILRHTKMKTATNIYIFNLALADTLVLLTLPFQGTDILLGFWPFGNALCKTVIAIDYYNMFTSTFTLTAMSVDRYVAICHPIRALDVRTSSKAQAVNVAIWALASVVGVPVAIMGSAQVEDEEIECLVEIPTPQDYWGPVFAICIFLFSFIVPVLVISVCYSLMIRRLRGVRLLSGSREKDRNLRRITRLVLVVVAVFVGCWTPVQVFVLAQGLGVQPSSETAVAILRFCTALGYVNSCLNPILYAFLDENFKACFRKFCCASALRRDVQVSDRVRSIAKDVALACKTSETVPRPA

Take `Cc1nn(-c2c(F)cccc2C(N)=O)cc1CN1CCC2(CC1)OCCc1c2sc(F)c1F.O=C(O)C(O)C(O)C(=O)O` [3-fluoro-2-[4-[(2,3-difluorospiro[4,5-dihydrothieno[2,3-c]pyran-7,4′-piperidine]-1′-yl)methyl]-3-methyl-pyrazol-1-yl]benzamide (L) Tartrate, reference compound]: the Glutathione conjugate formation result in data set [1] was “Yes”.

For the compound `Cc1nn(-c2c(F)cccc2C(N)=O)cc1CN1CCC2(CC1)OCCc1cc(F)sc12.O=C(O)C(O)C(O)C(=O)O` [3-fluoro-2-[4-[(2-fluorospiro[4,5-dihydrothieno[2,3-c]pyran-7,4′-piperidine]-1′-yl)methyl]-3-methyl-pyrazol-1-yl]benzamide (L) Tartrate, reference compound], in data set [1], the Glutathione conjugate formation entry was “Yes”.

As a reminder, the Kb is the affinity of an antagonist, worked out from how it opposes an agonist. `Cc1nn(-c2ncccc2CO)cc1CN1CCC2(CC1)OCC(F)(F)c1cc(Cl)sc12` [Example 1, [2-[4-[(2-Chloro-4,4-difluoro-spiro[5H-thieno[2,3-c]pyran-7,4′-piperidine]-1′-yl)methyl]-3-methyl-pyrazol-1-yl]-3-pyridyl]methanol (L)-tartrate]: the Kb in data set [2] is 200 pM.

On to `COCc1cccnc1-n1cc(CN2CCC3(CC2)OCC(F)(F)c2cc(F)sc23)c(C)n1.O=C(O)C(O)C(O)C(=O)O` [Example 10, 2,4,4-Trifluoro-1′-[[1-[3-(methoxymethyl)-2-pyridyl]-3-methyl-pyrazol-4-yl]methyl]spiro[5H-thieno[2,3-c]pyran-7,4′-piperidine] (L)-Tartrate], for which, in data set [1], the Glutathione conjugate formation entry was “No”.

Regarding `COCc1cccnc1-n1cc(CN2CCC3(CC2)OCCc2cc(Cl)sc23)c(C)n1.O=C(O)C(O)C(O)C(=O)O` [Example 14, 2-Chloro-1′-[[1-[3-(methoxymethyl)-2-pyridyl]-3-methyl-pyrazol-4-yl]methyl]spiro[4,5-dihydrothieno[2,3-c]pyran-7,4′-piperidine] (L)-Tartrate], in data set [1], the Glutathione conjugate formation entry was “Yes”.

With `CN(C)CCCN1c2ccccc2CCc2ccccc21` [Imiprimine, reference compound], in the data set with male NIH-Swiss mice (15 mg/kg, positive control), the “Immobilization Time” value was 96* sec. For the same compound, the “effect on immobilization time” value in data set [3] (ORL-1 knockout mice) is “reduce immobilization times in both the wild type and knockout mice to an equivalent degree”; in data set [3] (wild type mice) it was “reduce immobilization times in both the wild type and knockout mice to an equivalent degree”.

As for `CNS(=O)(=O)Cc1ccc2[nH]cc(CCN(C)C)c2c1` [Sumatriptan, reference compound], the “Extravasation Ratio (mean)” value in the data set on Male Sprague-Dawley rats was 1.06*.

As for `CNCCC(Oc1ccc(C(F)(F)F)cc1)c1ccccc1` (stereo not drawn) [fluoxetine, reference compound], in the data set on male NIH-Swiss mice (10 mg/Kg, alone), the “Immobilization Time” value turned out to be 168 s.

On to `Clc1cccc(N2CCNCC2)c1` [mCPP, meta-chlorophenylpiperazine, reference compound], for which the “effect on fasting-induced hyperphagia” value is “significantly reduce fasting induced hyperphagia equally in both wild type mice and the ORL-1 knockout mouse strain” in data set [4] (ORL-1 knockout mouse strain); “significantly reduce fasting induced hyperphagia equally in both wild type mice and the ORL-1 knockout mouse strain” in data set [4] (wild type mice, oral gavage 30 min. prior to food, food intake at 1 hr).
